Biological target: T1, human acetyl-CoA carboxylase 2 (ACC2) (Homo sapiens, UniProt O00763)
T1 construct: The cDNA encoding amino acids 144 to 2458 of human acetyl-CoA carboxylase 2; made in house; host or cells: Sf9 insect cells (baculovirus, pFastBac1)
Assay: Acetyl-CoA carboxylase enzyme assay (malonyl-CoA formation by LC/MS/MS)
Type: biochemical
Details: recombinant human ACC2 (aa 144-2458); read-out: IC50 ACC2
Procedure, shortened: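 Malonyl-CoA formation was read by LC/MS/MS MRM against a [13C3]-malonyl-CoA internal standard, after acetic acid quench. The enzyme was baculovirus/Sf9-expressed human ACC2 residues 144–2458, given 15 minutes room-temperature compound preincubation in HEPES pH 7.5 buffer with MgCl2, citrate and DTT. Substrate solution held 50 μM acetyl-CoA, 120 μM ATP and 2 mM KHCO3.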

T1 sequence (O00763 144-2458): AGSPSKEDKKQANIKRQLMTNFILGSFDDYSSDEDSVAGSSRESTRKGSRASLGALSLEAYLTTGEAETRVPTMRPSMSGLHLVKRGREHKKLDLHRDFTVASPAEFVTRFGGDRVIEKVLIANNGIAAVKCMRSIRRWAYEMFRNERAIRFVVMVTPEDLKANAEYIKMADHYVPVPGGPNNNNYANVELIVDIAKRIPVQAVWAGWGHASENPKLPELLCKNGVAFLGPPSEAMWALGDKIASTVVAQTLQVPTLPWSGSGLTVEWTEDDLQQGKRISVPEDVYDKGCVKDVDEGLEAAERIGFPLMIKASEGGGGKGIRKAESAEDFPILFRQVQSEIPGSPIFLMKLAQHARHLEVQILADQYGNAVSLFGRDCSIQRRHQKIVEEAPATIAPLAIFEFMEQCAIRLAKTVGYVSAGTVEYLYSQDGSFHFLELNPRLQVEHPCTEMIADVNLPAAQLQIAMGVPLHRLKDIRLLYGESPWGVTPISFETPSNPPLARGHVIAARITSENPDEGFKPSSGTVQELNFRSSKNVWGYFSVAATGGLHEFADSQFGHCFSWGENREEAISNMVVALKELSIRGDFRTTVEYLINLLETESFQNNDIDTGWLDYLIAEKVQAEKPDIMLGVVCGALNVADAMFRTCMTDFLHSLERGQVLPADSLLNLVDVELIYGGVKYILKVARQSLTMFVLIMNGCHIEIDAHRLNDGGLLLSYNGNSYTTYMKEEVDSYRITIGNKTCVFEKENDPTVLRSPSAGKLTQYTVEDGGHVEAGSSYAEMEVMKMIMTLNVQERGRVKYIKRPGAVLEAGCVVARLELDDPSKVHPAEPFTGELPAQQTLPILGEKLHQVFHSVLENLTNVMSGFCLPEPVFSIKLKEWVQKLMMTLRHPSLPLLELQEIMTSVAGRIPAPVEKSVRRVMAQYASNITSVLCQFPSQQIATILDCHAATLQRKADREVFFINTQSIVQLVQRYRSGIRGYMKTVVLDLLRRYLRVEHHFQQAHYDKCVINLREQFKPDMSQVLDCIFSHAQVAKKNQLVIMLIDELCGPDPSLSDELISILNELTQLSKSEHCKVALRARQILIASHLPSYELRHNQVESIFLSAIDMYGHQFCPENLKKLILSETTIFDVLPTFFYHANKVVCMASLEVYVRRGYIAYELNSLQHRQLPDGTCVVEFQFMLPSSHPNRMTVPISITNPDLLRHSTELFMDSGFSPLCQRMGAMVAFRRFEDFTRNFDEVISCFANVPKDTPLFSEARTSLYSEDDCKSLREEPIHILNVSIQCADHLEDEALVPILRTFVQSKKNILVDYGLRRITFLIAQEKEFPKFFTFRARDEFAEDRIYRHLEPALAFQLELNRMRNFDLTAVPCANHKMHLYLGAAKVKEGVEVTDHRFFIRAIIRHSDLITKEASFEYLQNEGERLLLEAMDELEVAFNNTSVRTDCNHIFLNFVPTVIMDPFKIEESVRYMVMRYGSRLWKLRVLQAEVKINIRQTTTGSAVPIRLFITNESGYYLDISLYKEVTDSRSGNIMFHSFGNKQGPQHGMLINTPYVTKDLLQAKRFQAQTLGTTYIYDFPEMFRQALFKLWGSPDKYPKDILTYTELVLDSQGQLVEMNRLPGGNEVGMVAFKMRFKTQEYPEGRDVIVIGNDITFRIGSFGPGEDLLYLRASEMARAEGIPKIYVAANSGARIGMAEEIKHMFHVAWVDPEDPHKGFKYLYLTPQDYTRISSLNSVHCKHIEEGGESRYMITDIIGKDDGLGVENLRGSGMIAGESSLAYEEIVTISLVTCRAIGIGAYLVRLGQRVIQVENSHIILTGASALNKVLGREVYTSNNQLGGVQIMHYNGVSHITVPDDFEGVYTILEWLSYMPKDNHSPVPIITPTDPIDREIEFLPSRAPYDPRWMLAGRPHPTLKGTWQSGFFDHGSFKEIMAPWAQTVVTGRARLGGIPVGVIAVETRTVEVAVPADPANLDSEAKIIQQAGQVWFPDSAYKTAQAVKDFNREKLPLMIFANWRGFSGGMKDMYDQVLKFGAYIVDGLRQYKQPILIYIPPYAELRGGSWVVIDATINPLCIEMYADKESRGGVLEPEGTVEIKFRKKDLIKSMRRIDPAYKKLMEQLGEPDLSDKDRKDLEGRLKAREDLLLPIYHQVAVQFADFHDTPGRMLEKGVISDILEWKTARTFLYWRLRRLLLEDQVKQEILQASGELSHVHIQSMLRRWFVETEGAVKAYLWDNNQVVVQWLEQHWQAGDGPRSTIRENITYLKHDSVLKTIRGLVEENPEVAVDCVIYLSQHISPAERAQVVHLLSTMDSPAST

IC50 | SMILES
0.03 µM | COc1ccc(Nc2nc3cc(S(=O)(=O)N[C@H]4CC[C@H](C(=O)OC(C)C)CC4)ccc3[nH]2)cc1 [Example 555, (1r,4r)-isopropyl 4-(2-(4-methoxyphenylamino)-1H-benzo[d]imidazole-5-sulfonamido)cyclohexanecarboxylate]
0.013 µM | CC(C)OC(=O)[C@H]1CC[C@H](NS(=O)(=O)c2ccc3[nH]c(-c4ccc(N5CCN(C)CC5)cc4)nc3c2)CC1 [Example 557, (1r,4r)-isopropyl 4-(2-(4-(4-methylpiperazin-1-yl)phenyl)-1H-benzo[d]imidazole-5-sulfonamido)cyclohexanecarboxylate]
0.337 µM | CC(C)OC(=O)c1ccc(NS(=O)(=O)c2ccc3[nH]c(-c4ccc(CN(C)C)cc4)nc3c2)cc1 [Example 558, isopropyl 4-(2-(4-((dimethylamino)methyl)phenyl)-1H-benzo[d]imidazole-5-sulfonamido)benzoate]
0.027 µM | CC(C)N(C)C(=O)[C@H]1CC[C@H](NS(=O)(=O)c2ccc3[nH]c(-c4ccc(N5CCN(C)CC5)cc4)nc3c2)CC1 [Example 564, (1r,4r)-N-isopropyl-N-methyl-4-(2-(4-(4-methylpiperazin-1-yl)phenyl)-1H-benzo[d]imidazole-5-sulfonamido)cyclohexanecarboxamide]
0.065 µM | CCN(C)C(=O)[C@H]1CC[C@H](NS(=O)(=O)c2ccc3[nH]c(-c4ccc(N5CCN(C)CC5)cc4)nc3c2)CC1 [Example 567, (1r,4r)-N-ethyl-N-methyl-4-(2-(4-(4-methylpiperazin-1-yl)phenyl)-1H-benzo[d]imidazole-5-sulfonamido)cyclohexanecarboxamide]
0.126 µM | CCN(C)C(=O)[C@H]1CC[C@H](NS(=O)(=O)c2ccc3[nH]c(Nc4ccccc4)nc3c2)CC1 [Example 568, (1r,4r)-N-ethyl-N-methyl-4-(2-(phenylamino)-1H-benzo[d]imidazole-5-sulfonamido)cyclohexanecarboxamide]
< 0.01 µM | C[C@@H](NC(=O)[C@H]1CC[C@H](NS(=O)(=O)c2ccc3[nH]c(Nc4ccccc4)nc3c2)CC1)c1ccccc1 [Example 569, (1r,4R)-4-(2-(phenylamino)-1H-benzo[d]imidazole-5-sulfonamido)-N-((R)-1-phenylethyl)cyclohexanecarboxamide]
< 0.01 µM | C[C@@H](NC(=O)[C@H]1CC[C@H](NS(=O)(=O)c2ccc3[nH]c(Nc4cccc(C#N)c4)nc3c2)CC1)c1ccccc1 [Example 570, (1r,4R)-4-(2-(3-cyanophenylamino)-1H-benzo[d]imidazole-5-sulfonamido)-N-((R)-1-phenylethyl)cyclohexanecarboxamide]
< 0.01 µM | CC(=O)c1ccc(Nc2nc3cc(S(=O)(=O)N[C@H]4CC[C@H](C(=O)N[C@H](C)c5ccccc5)CC4)ccc3[nH]2)cc1 [Example 572, (1r,4R)-4-(2-(4-acetylphenylamino)-1H-benzo[d]imidazole-5-sulfonamido)-N-((R)-1-phenylethyl)cyclohexanecarboxamide]
< 0.01 µM | CC(O)c1ccc(-c2nc3cc(S(=O)(=O)N[C@H]4CC[C@H](C(=O)N[C@H](C)c5ccccc5)CC4)ccc3[nH]2)cc1 (stereo partly drawn) [Example 573, (1r,4R)-4-(2-(4-(1-hydroxyethyl)phenyl)-1H-benzo[d]imidazole-5-sulfonamido)-N-((R)-1-phenylethyl)cyclohexanecarboxamide]
< 0.01 µM | C[C@@H](NC(=O)[C@H]1CC[C@H](NS(=O)(=O)c2ccc3[nH]c(Nc4ccc(N5CCOCC5)cc4)nc3c2)CC1)c1ccccc1 [Example 574, (1r,4R)-4-(2-(4-morpholinophenylamino)-1H-benzo[d]imidazole-5-sulfonamido)-N-((R)-1-phenylethyl)cyclohexanecarboxamide]
< 0.01 µM | C[C@@H](NC(=O)[C@H]1CC[C@H](NS(=O)(=O)c2ccc3[nH]c(-c4ccc(N5CCN(C)CC5)cc4)nc3c2)CC1)c1ccccc1 [Example 575, (1r,4R)-4-(2-(4-(4-methylpiperazin-1-yl)phenyl)-1H-benzo[d]imidazole-5-sulfonamido)-N-((R)-1-phenylethyl)cyclohexanecarboxamide]
< 0.01 µM | C[C@@H](NC(=O)[C@H]1CC[C@H](NS(=O)(=O)c2ccc3[nH]c(-c4ccc(CN5CCN(C)CC5)cc4)nc3c2)CC1)c1ccccc1 [Example 576, (1r,4R)-4-(2-(4-((4-methylpiperazin-1-yl)methyl)phenyl)-1H-benzo[d]imidazole-5-sulfonamido)-N-((R)-1-phenylethyl)cyclohexanecarboxamide]
0.015 µM | C[C@@H](NC(=O)[C@H]1CC[C@H](NS(=O)(=O)c2ccc3[nH]c(-c4ccc(CN5CCOCC5)cc4)nc3c2)CC1)c1ccccc1 [Example 577, (1r,4R)-4-(2-(4-(morpholinomethyl)phenyl)-1H-benzo[d]imidazole-5-surfonamido)-N-((R)-1-phenylethyl)cyclohexanecarboxamide]
0.01 µM | O=C(N[C@H](CO)c1ccccc1)[C@H]1CC[C@H](NS(=O)(=O)c2ccc3[nH]c(-c4ccccc4)nc3c2)CC1 [Example 579, (1r,4S)-N-((S)-2-hydroxy-1-phenylethyl)-4-(2-phenyl-1H-benzo[d]imidazole-5-sulfonamido)cyclohexanecarboxamide]
0.309 µM | O=C(NC1(c2ccccc2)CC1)[C@H]1CC[C@H](NS(=O)(=O)c2ccc3[nH]c(-c4ccccc4)nc3c2)CC1 [Example 581, (1r,4r)-4-(2-phenyl-1H-benzo[d]imidazole-5-sulfonamido)-N-(1-phenylcyclopropyl)cyclohexanecarboxamide]
0.25 µM | CC(C)(NC(=O)[C@H]1CC[C@H](NS(=O)(=O)c2ccc3[nH]c(-c4ccccc4)nc3c2)CC1)c1ccccc1 [Example 582, (1r,4r)-4-(2-phenyl-1H-benzo[d]imidazole-5-sulfonamido)-N-(2-phenylpropan-2-yl)cyclohexanecarboxamide]

More lines, now with the values behind:

SMILES | IC50
CC(C)OC(=O)[C@H]1CC[C@H](NS(=O)(=O)c2ccc3[nH]c(-c4ccc(C(C)O)cc4)nc3c2)CC1 (some centres unmarked) [Example 556, (1r,4r)-isopropyl 4-(2-(4-(1-hydroxyethyl)phenyl)-1H-benzo[d]imidazole-5-sulfonamido)cyclohexanecarboxylate] | 0.025 µM
CNCc1ccc(-c2nc3cc(S(=O)(=O)Nc4ccc(C(=O)OC(C)C)cc4)ccc3[nH]2)cc1 [Example 559, isopropyl 4-(2-(4-((methylamino)methyl)phenyl)-1H-benzo[d]imidazole-5-sulfonamido)benzoate] | 0.163 µM
CC(C)OC(=O)c1ccc(NS(=O)(=O)c2ccc3[nH]c(-c4ccc(CNCc5ccccc5)cc4)nc3c2)cc1 [Example 560, isopropyl 4-(2-(4-((benzylamino)methyl)phenyl)-1H-benzo[d]imidazole-5-sulfonamdo)benzoate] | 0.397 µM
CC(C)OC(=O)c1ccc(NS(=O)(=O)c2ccc3[nH]c(-c4ccc(CN5CCN(C)CC5)cc4)nc3c2)cc1 [Example 561, isopropyl 4-(2-(4-((4-methylpiperazin-1-yl)methyl)phenyl)-1H-benzo[d]imidazole-5-sulfonamido)benzoate] | 0.316 µM
CC(C)OC(=O)c1ccc(NS(=O)(=O)c2ccc3[nH]c(-c4ccc(CN5CCOCC5)cc4)nc3c2)cc1 [Example 562, isopropyl 4-(2-(4-(morpholinomethyl)phenyl)-1H-benzo[d]imidazole-5-sulfonamido)benzoate] | 0.676 µM
COc1ccc(CNCc2ccc(-c3nc4cc(S(=O)(=O)Nc5ccc(C(=O)OC(C)C)cc5)ccc4[nH]3)cc2)cc1OC [Example 563, isopropyl 4-(2-(4-((3,4-dimethoxybenzylamino)methyl)phenyl)-1H-benzo[d]imidazole-5-sulfonamido)benzoate] | 0.351 µM
CCCN(C)C(=O)[C@H]1CC[C@H](NS(=O)(=O)c2ccc3[nH]c(-c4ccc(N5CCN(C)CC5)cc4)nc3c2)CC1 [Example 565, (1r,4r)-N-methyl-4-(2-(4-(4-methylpiperazin-1-yl)phenyl)-1H-benzo[d]imidazole-5-sulfonamido)-N-propylcyclohexanecarboxamide] | 0.048 µM
CCCN(C)C(=O)[C@H]1CC[C@H](NS(=O)(=O)c2ccc3[nH]c(Nc4ccccc4)nc3c2)CC1 [Example 566, (1r,4r)-N-methyl-4-(2-(phenylamino)-1H-benzo[d]imidazole-5-sulfonamido)-N-propylcyclohexanecarboxamide] | 0.118 µM
C[C@@H](NC(=O)[C@H]1CC[C@H](NS(=O)(=O)c2ccc3[nH]c(Nc4ccc(N5CCOCC5)nc4)nc3c2)CC1)c1ccccc1 [Example 571, (1r,4R)-4-(2-(6-morpholinopyridin-3-ylamino)-1H-benzo[d]imidazole-5-sulfonamido)-N-((R)-1-phenylethyl)cyclohexanecarboxamide] | < 0.01 µM
C[C@H](c1ccccc1)N(C)C(=O)[C@H]1CC[C@H](NS(=O)(=O)c2ccc3[nH]c(-c4ccccc4)nc3c2)CC1 [Example 578, (1r,4R)-N-methyl-4-(2-phenyl-1H-benzo[d]imidazole-5-sulfonamido)-N-((R)-1-phenylethyl)cyclohexanecarboxamide] | 0.061 µM
C[C@@H](NC(=O)C1CCC(NS(=O)(=O)c2ccc3[nH]c(-c4ccccc4)nc3c2)CC1)c1ccccc1 (stereo partly drawn) [Example 580, (1r,4S)-4-(2-phenyl-1H-benzo[d]imidazole-5-sulfonamido)-N-((S)-1-phenylethyl)cyclohexanecarboxamide] | 1.75 µM
CN1CCN(c2ccc(-c3nc4cc(S(=O)(=O)N[C@H]5CC[C@H](C(=O)N6CCOCC6)CC5)ccc4[nH]3)cc2)CC1 [Example 583, 2-(4-(4-methylpiperazin-1-yl)phenyl)-N-((1r,4r)-4-(morpholine-4-carbonyl)cyclohexyl)-1H-benzo[d]imidazole-5-sulfonamide] | 0.055 µM

From US8697739B2, “Bicyclic acetyl-CoA carboxylase inhibitors and uses thereof” (Novartis AG, priority 2010, dated 2014)
